The values that follow come from patent US5679641A, “Peptides of human P53 protein for use in human T cell response inducing compositions, and human P53 protein-specific cytotoxic t-lymphocytes” (Rijksuniversiteit Leiden, priority 1992, dated 1997).

No end group written: not given here.

One test has as its target T1, HLA-A2.1 molecule (Homo sapiens, UniProt P04439, D140Y/D185E/D98H/E176V/E277Q/G131W/G231S/I119V/I121R/I166T/I218V/L300P/L318F/N151K/N90K/P208A/P217A/Q86G/Q94H/R138H/R169H/T345S).
T1 construct: endogenous in cells; host or cells: 174.CEM T2 (antigen-processing-defective human T x B hybrid cell line, provided by P. Cresswell)
The test is described as follows: Peptide binding: upregulation of HLA-A2.1 expression on (174.CEM) T2 cells, FACScan. The following applies: for fluorescence ratio (i.e. binding ability): 200 μg/ml peptide, 16 hours at 37° C., (174.CEM) T2 cells, antibody BB7.2, mean fluorescence with peptide divided by without, positive when ratio of 1.2 is reached. The test is classed as cell-based.

The next test has as its system HLA-A2.1 positive PBL. The test is described as follows: Induction of primary in vitro CTL response with peptide loaded 174CEM.T2 cells, cloning of CTL. Conditions: peptide loaded antigen processing defective cell line 174.CEM T2, peptide 80 μg/ml, PBL of healthy HLA-A2.1 positive donor. The test is classed as cell-based, human. As for the experimental part: Responder T cells are included in mononuclear white blood cells (PBL) of an HLA-A2.1 positive healthy donor. The PBL were separated from a buffycoat by Ficoll procedure (LYMPHOPREP of Nycomed-pharma, Oslo, Norway, cat. no. 105033) and washed two times in RPMI 1640 (Gibco Paislan, Scotland, cat. no. 041-02409) supplemented with 30% pooled human serum (tested for its capacity to support mixed lymphocyte cultures), 2 mM glutamine (ICN Biochemicals, Inc., Costa Mesa, Calif., USA, cat. no. 15-801-55), penicillin (100 IU/ml, Brocades Pharma, Leiderdorp, The Netherlands), kanamycin ([…], Sigma, St. Louis, Mo., USA).
174CEM.T2 (T2) cells in a concentration of 2×10^6 per ml were incubated for 13 hours at 37° C. in a T25 flask (Falcon, Becton & Dickinson, Plymouth, England, cat. no. 3013) in serum-free ISCOVE's medium (Biochrom KG, Seromed, Berlin, Gemany, cat. no. F0465) with glutamine (2 mM, ICN Biochemicals Inc., Costa Mesa, Calif., USA, cat. no. 15-801-55) and antibiotics as mentioned under 2 and individual p53 peptides at a final concentration of 80 μg/ml. Subsequently the T2 cells were spun down and treated at a density of 20×10^6 cells/ml with Mitomycin C (final concentration 50 μg/ml) in serum-free RPMI 1640 (manufacturer see 2) medium during one hour at 37° C. Thereafter the T2 cells were washed three times in RPMI 1640. […]

For `CSCC[C@H](NC(=O)[C@H](CCCCN)NC(=O)[C@H](CC(N)=O)NC(=O)[C@H](CC(C)C)NC(=O)[C@H](C)N)C(=O)N[C@@H](Cc1ccccc1)C(=O)N[C@@H](CS)C(=O)N[C@@H](CCC(N)=O)C(=O)N[C@@H](CC(C)C)C(=O)N[C@@H](C)C(=O)O` [compound 11, ALNKMFCOLA], on HLA-A2.1 molecule, the “fluorescence ratio (i.e. binding ability)” value is on record as 1.4.
Still for that read-out and setting: with ALNKMFYQL [compound 27] the figure was 1.2; with “KLFCQLAXT (KLFCQLAKT) [compound 29, residues 132-140 of human mp53 (mutant p53)]”, 1.3.
In the case of “LLPENNVLS [compound 3, residues 25-33 of human p53]”, the “fluorescence ratio (i.e. binding ability)” value with HLA-A2.1 molecule turned out to be 1.7. Besides, the “binding to HLA-A2.1 molecule (in words)” value with HLA-A2.1 molecule (174.CEM T2 cells, mean HLA-A2.1 fluorescence) was “strong ability to bind to HLA-A2.1”. Moreover, the “primary in vitro human CTL response against the peptide” value with HLA-A2.1 positive PBL is “possible so far to generate a primary in vitro human CTL response”.
